Laboratory results as given in ChEMBL document CHEMBL1201862, “PubChem BioAssay data set” (2004).
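Test compounds were applied to cells in 96-well plates for 48 hours at 5 doses. Here, GI50 denotes the concentration required for 50% inhibition of growth.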 The source made the active and inactive calls. Cut-off read from the data, not from the text of the source: active = GI50 up to about 1.1 µM and inactive = higher.

Experiments:
Test in all cases: NCI tumour cell line growth inhibition, 48 h
COLO 205 = tested on: COLO 205
SK-MEL-28 = tested on: SK-MEL-28
HOP-92 = tested on: HOP-92
MDA-MB-231 = tested on: MDA-MB-231
MDA-MB-435 = tested on: MDA-MB-435
OVCAR-5 = tested on: OVCAR-5
HCT-116 = tested on: HCT-116
HOP-62 = tested on: HOP-62
SN12C = tested on: SN12C
NCI-H522 = tested on: NCI-H522
NCI/ADR-RES = tested on: NCI/ADR-RES
EKVX = tested on: EKVX
TK-10 = tested on: TK-10
SF-268 = tested on: SF-268
HL-60 = tested on: HL-60
M14 = tested on: M14
A549 = tested on: A549
Hs-578T = tested on: Hs-578T
UACC-62 = tested on: UACC-62
MCF7 = tested on: MCF7
OVCAR-3 = tested on: OVCAR-3
UO-31 = tested on: UO-31
T47D = tested on: T47D
MOLT-4 = tested on: MOLT-4
SF-539 = tested on: SF-539
UACC-257 = tested on: UACC-257
NCI-H226 = tested on: NCI-H226
DU-145 = tested on: DU-145
BT-549 = tested on: BT-549
ACHN = tested on: ACHN
LOX IMVI = tested on: LOX IMVI
RXF 393 = tested on: RXF 393
A498 = tested on: A498
HCT-15 = tested on: HCT-15
OVCAR-4 = tested on: OVCAR-4
Malme-3M = tested on: Malme-3M
NCI-H23 = tested on: NCI-H23
PC-3 = tested on: PC-3
K562 = tested on: K562
IGROV-1 = tested on: IGROV-1
HCC 2998 = tested on: HCC 2998
SK-OV-3 = tested on: SK-OV-3
HT-29 = tested on: HT-29
SK-MEL-5 = tested on: SK-MEL-5
SF-295 = tested on: SF-295
SR = tested on: SR
U-251 = tested on: U-251
SW-620 = tested on: SW-620
CCRF-CEM = tested on: CCRF-CEM
SNB-19 = tested on: SNB-19
786-0 = tested on: 786-0
RPMI-8226 = tested on: RPMI-8226
NCI-H460 = tested on: NCI-H460
KM12 = tested on: KM12
OVCAR-8 = tested on: OVCAR-8
SNB-75 = tested on: SNB-75
CAKI-1 = tested on: CAKI-1
SK-MEL-2 = tested on: SK-MEL-2
MDA-N = tested on: MDA-N

Measured: GI50

NCCCNc1ccc2c(c1)[n+]([O-])c1ccccc1[n+]2[O-]
22.9 µM: HCT-15
inactive: COLO 205 18.3 µM | SK-MEL-28 59.7 µM | HOP-92 12.7 µM | MDA-MB-231 19.9 µM | MDA-MB-435 31.8 µM | OVCAR-5 28.4 µM | HCT-116 17.3 µM | HOP-62 22.7 µM | SN12C 26 µM | NCI-H522 13.6 µM | NCI/ADR-RES > 100 µM | EKVX 37.2 µM | TK-10 28.4 µM | SF-268 27.1 µM | HL-60 19.7 µM | M14 13.8 µM | A549 31.5 µM | Hs-578T 18.5 µM | UACC-62 17.7 µM | MCF7 13.9 µM | OVCAR-3 19.8 µM | UO-31 35.3 µM | T47D 22.7 µM | MOLT-4 15.7 µM | SF-539 20.6 µM | UACC-257 27.2 µM | NCI-H226 12.3 µM | DU-145 27 µM | BT-549 13.6 µM | ACHN 21 µM | LOX IMVI 7.14 µM | RXF 393 20.1 µM | A498 17.2 µM | OVCAR-4 25 µM | Malme-3M 17.4 µM | NCI-H23 35.5 µM | PC-3 27.4 µM | K562 26.4 µM | IGROV-1 12.7 µM | HCC 2998 23.2 µM | SK-OV-3 14.2 µM | HT-29 28.6 µM | SK-MEL-5 15.2 µM | SF-295 28.8 µM | SR 19.1 µM | U-251 19.5 µM | SW-620 33 µM | CCRF-CEM 22.4 µM | SNB-19 28.3 µM | 786-0 29.2 µM | RPMI-8226 17.6 µM | NCI-H460 15.7 µM | KM12 25.4 µM | OVCAR-8 31.5 µM

CC(=O)c1nc2ccccc2n1CC(=O)c1ccc([N+](=O)[O-])cc1
inactive: COLO 205 34.8 µM | SK-MEL-28 52.6 µM | SNB-75 35.3 µM | MDA-MB-231 26.1 µM | MDA-MB-435 22 µM | HCT-116 8.2 µM | HOP-62 5.06 µM | SN12C 17.8 µM | NCI-H522 2.93 µM | NCI/ADR-RES 13.4 µM | EKVX > 100 µM | TK-10 42.5 µM | SF-268 30.8 µM | HL-60 13.8 µM | M14 77.1 µM | A549 11.4 µM | Hs-578T 6.68 µM | UACC-62 10 µM | MCF7 16.7 µM | OVCAR-3 13.5 µM | UO-31 14.9 µM | T47D 8.18 µM | MOLT-4 5.52 µM | SF-539 22.3 µM | UACC-257 33.6 µM | NCI-H226 21.5 µM | DU-145 31.6 µM | BT-549 12.6 µM | LOX IMVI 7.26 µM | RXF 393 23.8 µM | A498 55.2 µM | OVCAR-4 34.8 µM | Malme-3M 11.6 µM | NCI-H23 31.3 µM | PC-3 10.4 µM | K562 5.5 µM | IGROV-1 3.12 µM | SK-OV-3 31.2 µM | HT-29 15.2 µM | SF-295 17.7 µM | SR 7.45 µM | U-251 4.38 µM | SW-620 10.6 µM | CCRF-CEM 9.84 µM | SNB-19 13.5 µM | 786-0 3.47 µM | RPMI-8226 20.1 µM | NCI-H460 5.74 µM | KM12 5.46 µM | CAKI-1 17.4 µM | OVCAR-8 8.49 µM
42.3 µM: HCT-15

O=C(O)C(=O)Cc1ccc2c(c1)OCO2
> 100 µM: HCT-15
inactive: COLO 205 > 100 µM | SK-MEL-28 > 100 µM | SNB-75 > 100 µM | HOP-92 > 100 µM | MDA-MB-231 > 100 µM | MDA-MB-435 > 100 µM | OVCAR-5 > 100 µM | HCT-116 > 100 µM | HOP-62 > 100 µM | SN12C > 100 µM | NCI/ADR-RES > 100 µM | EKVX > 100 µM | TK-10 > 100 µM | HL-60 > 100 µM | M14 > 100 µM | A549 > 100 µM | UACC-62 > 100 µM | MCF7 > 100 µM | OVCAR-3 > 100 µM | UO-31 > 100 µM | T47D > 100 µM | MOLT-4 83.8 µM | SF-539 > 100 µM | UACC-257 > 100 µM | NCI-H226 65.5 µM | DU-145 > 100 µM | BT-549 > 100 µM | SK-MEL-2 > 100 µM | ACHN > 100 µM | LOX IMVI > 100 µM | RXF 393 > 100 µM | A498 > 100 µM | OVCAR-4 > 100 µM | NCI-H23 > 100 µM | PC-3 > 100 µM | K562 > 100 µM | IGROV-1 > 100 µM | MDA-N > 100 µM | SK-OV-3 > 100 µM | HT-29 > 100 µM | SK-MEL-5 > 100 µM | SF-295 > 100 µM | SR > 100 µM | U-251 > 100 µM | SW-620 > 100 µM | CCRF-CEM 18.9 µM | SNB-19 > 100 µM | 786-0 > 100 µM | RPMI-8226 > 100 µM | NCI-H460 > 100 µM | KM12 > 100 µM | CAKI-1 > 100 µM | OVCAR-8 > 100 µM
